Drawing on the NIST ThermoML archive (doi:10.1016/j.jct.2012.03.020), this text covers refractive index, mass density and Normal melting temperature for four molecules.

The nature of series [1]: refractive index (Na D-line) (dimensionless). To be noted: 101.33 kPa, Liquid, Standard Abbe refractometry.
The conditions of series [2]: for mass density: 101.33 kPa, Liquid, Pycnometric method; for Normal melting temperature: Crystal, visual observation.

± gives the expanded uncertainty stated by the source.

In the case of `Cc1ccc(C(=O)N(O)c2ccccc2)cc1[N+](=O)[O-]` [N-hydroxy-4-methyl-3-nitro-N-phenylbenzamide], the refractive index is listed as 1.4371 ± 0.0004 in series [1] (298.15 K), 1.4336 ± 0.0004 in series [1] (303.15 K), 1.4302 ± 0.0004 in series [1] (308.15 K) and 1.4286 ± 0.0004 in series [1] (313.15 K). The mass density came to 1437 ± 0.9 kg/m3 in series [2] (298.15 K), 1433.5 ± 0.9 kg/m3 in series [2] (303.15 K), 1430.2 ± 0.9 kg/m3 in series [2] (308.15 K) and 1428.5 ± 0.9 kg/m3 in series [2] (313.15 K). Also, the Normal melting temperature in series [2] was found to be 117.00 ± 2 °C.

In the case of `O=C(c1ccc([N+](=O)[O-])cc1)N(O)c1ccccc1` [N-hydroxy-4-nitro-N-phenylbenzamide], in series [2], the Normal melting temperature was found to be 168.00 ± 2 °C.

In the case of `O=C(c1ccccc1)N(O)c1ccccc1` [N-phenylbenzohydroxamic acid], the refractive index stood at 1.4269 ± 0.0004 in series [1] (298.15 K), 1.4257 ± 0.0004 in series [1] (303.15 K), 1.4241 ± 0.0004 in series [1] (308.15 K) and 1.4221 ± 0.0004 in series [1] (313.15 K). In addition, the mass density in series [2] (298.15 K) is 945.8 ± 0.6 kg/m3; in series [2] (303.15 K), 940.4 ± 0.6 kg/m3; in series [2] (308.15 K) it was 936.3 ± 0.6 kg/m3; in series [2] (313.15 K), 931.2 ± 0.6 kg/m3. Besides, the Normal melting temperature in series [2] came out at 121.00 ± 2 °C.

For the molecule `CN(C)C=O` [dimethylformamide], the refractive index in series [1] (298.15 K) is given as 1.427 ± 0.0004; in series [1] (303.15 K), 1.4253 ± 0.0004; in series [1] (308.15 K) it was 1.423 ± 0.0004; in series [1] (313.15 K), 1.421 ± 0.0004. Moreover, the mass density in series [2] (298.15 K) is on record as 945.2 ± 0.9 kg/m3; in series [2] (303.15 K) it was 939.7 ± 0.8 kg/m3; in series [2] (308.15 K), 935.6 ± 0.8 kg/m3; in series [2] (313.15 K) it was 930.2 ± 0.9 kg/m3.
